Reference: ChEMBL document CHEMBL5357011, “Chemical Catalysis Guides Structural Identification for the Major In Vivo Metabolite of the BET Inhibitor JQ1” (ACS Med Chem Lett, 2024)

Assays:
Assay type in all cases: ADME, organism-based
Details in all cases: in vivo
[1] = AUC (0 to t) in male C57BL/6NJ mouse at 50 mg/kg, ip measured upto 24 hrs by UHPLC-ESI-Q-Orbitrap-MS analysis; parameters: time < 24 hrs, dose 50 mg/kg, route ip
[2] = AUC (0 to t) in female C57BL/6NJ mouse at 50 mg/kg, ip measured upto 24 hrs by UHPLC-ESI-Q-Orbitrap-MS analysis; parameters: dose 50 mg/kg, time < 24 hrs, route ip
[3] = Observed apparent oral clearance in male C57BL/6NJ mouse at 50 mg/kg, ip measured upto 24 hrs by UHPLC-ESI-Q-Orbitrap-MS analysis
[4] = Observed apparent oral clearance in female C57BL/6NJ mouse at 50 mg/kg, ip measured upto 24 hrs by UHPLC-ESI-Q-Orbitrap-MS analysis

Row | SMILES | AUCt [1] | AUCt [2] | CL/F [3] | CL/F [4]
1 | Cc1sc2c(c1C)C(c1ccc(Cl)cc1)=N[C@@H](CC(=O)OC(C)(C)C)c1nnc(C)n1-2 | 75.1 µg/mL/h | 41.1 µg/mL/h | 0.661 (mg)/(ug/ml)/hr | 1.22 (mg)/(ug/ml)/hr
2 | [2H]C([2H])([2H])c1sc2c(c1C)C(c1ccc(Cl)cc1)=N[C@@H](CC(=O)OC(C)(C)C)c1nnc(C)n1-2 | 94.2 µg/mL/h | 50.5 µg/mL/h | 0.528 (mg)/(ug/ml)/hr | 
